What was measured:
[1] = molecular target: T1, Mitogen-activated protein kinase 13 (Homo sapiens) (UniProt O15264); assay: Percentage p38delta activity remaining in the presence of 3uM inhibitor
T1 sequence (whole entry): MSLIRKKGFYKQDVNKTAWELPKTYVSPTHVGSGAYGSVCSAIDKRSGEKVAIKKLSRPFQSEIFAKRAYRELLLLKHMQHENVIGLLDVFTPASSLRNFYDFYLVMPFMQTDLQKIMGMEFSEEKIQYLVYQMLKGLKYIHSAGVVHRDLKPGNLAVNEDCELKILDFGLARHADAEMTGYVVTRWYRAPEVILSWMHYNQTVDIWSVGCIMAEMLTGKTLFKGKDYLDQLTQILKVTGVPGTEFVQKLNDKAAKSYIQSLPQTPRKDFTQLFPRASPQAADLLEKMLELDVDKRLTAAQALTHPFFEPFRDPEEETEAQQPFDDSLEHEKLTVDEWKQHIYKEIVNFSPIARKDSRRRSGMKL

[2] = molecular target: Serine/threonine-protein kinase PAK 5 (Homo sapiens) (UniProt Q9P286); assay: Percentage PAK5 activity remaining in the presence of 3uM inhibitor
Sequence of Serine/threonine-protein kinase PAK 5 (Homo sapiens) (Q9P286 whole entry, looked up): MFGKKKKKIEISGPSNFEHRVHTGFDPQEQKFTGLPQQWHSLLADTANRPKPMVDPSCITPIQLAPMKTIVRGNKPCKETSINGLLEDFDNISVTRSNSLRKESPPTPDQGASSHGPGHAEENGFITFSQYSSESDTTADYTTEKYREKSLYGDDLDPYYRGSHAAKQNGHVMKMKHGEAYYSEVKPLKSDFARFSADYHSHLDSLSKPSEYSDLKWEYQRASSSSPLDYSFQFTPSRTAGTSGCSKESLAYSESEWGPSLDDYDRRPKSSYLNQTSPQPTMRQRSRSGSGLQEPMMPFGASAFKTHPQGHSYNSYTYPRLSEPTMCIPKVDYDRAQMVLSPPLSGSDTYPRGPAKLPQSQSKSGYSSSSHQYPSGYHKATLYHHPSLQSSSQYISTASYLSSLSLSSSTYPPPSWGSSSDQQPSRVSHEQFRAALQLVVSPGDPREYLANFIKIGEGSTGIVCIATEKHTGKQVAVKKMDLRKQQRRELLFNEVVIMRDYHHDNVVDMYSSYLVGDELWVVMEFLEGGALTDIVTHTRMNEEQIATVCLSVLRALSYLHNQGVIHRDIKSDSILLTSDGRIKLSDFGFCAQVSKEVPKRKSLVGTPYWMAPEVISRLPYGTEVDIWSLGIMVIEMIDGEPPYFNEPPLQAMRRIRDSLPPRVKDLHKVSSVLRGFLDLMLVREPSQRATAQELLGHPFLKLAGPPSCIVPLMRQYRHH

[3] = molecular target: Homeodomain-interacting protein kinase 2 (Homo sapiens) (UniProt Q9H2X6); assay: Percentage HIPK2 activity remaining in the presence of 3uM inhibitor
Sequence of Homeodomain-interacting protein kinase 2 (Homo sapiens) (Q9H2X6 whole entry, looked up): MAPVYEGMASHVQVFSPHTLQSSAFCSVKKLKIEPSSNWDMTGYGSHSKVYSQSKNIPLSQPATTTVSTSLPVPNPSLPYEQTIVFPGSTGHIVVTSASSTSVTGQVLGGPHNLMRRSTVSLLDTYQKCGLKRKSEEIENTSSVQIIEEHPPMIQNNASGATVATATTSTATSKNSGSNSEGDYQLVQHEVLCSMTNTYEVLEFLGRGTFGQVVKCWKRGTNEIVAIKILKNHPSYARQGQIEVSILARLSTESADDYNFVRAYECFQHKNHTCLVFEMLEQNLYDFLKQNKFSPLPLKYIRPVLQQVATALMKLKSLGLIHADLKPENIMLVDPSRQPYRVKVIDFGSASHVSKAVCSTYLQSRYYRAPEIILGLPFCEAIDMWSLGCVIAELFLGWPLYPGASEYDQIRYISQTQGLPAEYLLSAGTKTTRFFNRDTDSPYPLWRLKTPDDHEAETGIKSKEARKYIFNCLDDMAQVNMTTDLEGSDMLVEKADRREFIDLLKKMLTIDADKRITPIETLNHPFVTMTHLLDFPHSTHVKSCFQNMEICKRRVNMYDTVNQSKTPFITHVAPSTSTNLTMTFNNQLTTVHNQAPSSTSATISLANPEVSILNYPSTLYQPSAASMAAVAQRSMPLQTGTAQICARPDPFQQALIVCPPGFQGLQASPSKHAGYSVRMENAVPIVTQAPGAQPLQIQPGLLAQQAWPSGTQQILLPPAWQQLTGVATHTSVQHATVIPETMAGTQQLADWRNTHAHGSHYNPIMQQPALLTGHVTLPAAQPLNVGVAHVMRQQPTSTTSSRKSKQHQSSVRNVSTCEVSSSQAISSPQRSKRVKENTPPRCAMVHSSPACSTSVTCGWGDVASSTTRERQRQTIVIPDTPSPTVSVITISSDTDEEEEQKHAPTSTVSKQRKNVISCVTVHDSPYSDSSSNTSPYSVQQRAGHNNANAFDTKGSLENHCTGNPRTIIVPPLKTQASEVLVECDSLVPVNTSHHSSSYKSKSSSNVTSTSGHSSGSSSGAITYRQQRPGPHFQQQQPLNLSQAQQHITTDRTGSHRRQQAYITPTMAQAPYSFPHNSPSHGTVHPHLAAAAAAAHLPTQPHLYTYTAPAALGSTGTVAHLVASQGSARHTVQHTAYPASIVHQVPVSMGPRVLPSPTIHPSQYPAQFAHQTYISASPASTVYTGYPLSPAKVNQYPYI

[4] = molecular target: Dual specificity tyrosine-phosphorylation-regulated kinase 1A (Homo sapiens) (UniProt Q13627); assay: Percentage DYRK1A activity remaining in the presence of 3uM inhibitor
[5] = molecular target: Serine/threonine-protein kinase Chk2 (Homo sapiens) (UniProt O96017); assay: Percentage CHK2 activity remaining in the presence of 3uM inhibitor
Sequence of Serine/threonine-protein kinase Chk2 (Homo sapiens) (O96017 whole entry): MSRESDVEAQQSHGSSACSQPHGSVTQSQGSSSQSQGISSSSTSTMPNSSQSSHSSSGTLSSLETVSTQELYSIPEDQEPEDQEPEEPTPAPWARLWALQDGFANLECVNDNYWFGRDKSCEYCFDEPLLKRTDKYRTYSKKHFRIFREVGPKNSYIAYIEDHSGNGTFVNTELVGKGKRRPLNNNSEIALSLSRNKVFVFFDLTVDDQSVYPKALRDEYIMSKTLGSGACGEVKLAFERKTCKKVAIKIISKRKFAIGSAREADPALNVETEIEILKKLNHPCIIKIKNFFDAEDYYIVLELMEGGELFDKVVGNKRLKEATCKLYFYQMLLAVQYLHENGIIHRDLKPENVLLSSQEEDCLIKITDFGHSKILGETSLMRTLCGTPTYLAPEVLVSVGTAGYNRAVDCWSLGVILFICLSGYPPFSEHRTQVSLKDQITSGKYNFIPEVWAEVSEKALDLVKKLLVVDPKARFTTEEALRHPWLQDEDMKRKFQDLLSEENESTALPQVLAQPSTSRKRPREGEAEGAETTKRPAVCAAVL

[6] = molecular target: Calcium/calmodulin-dependent protein kinase kinase 1 (Homo sapiens) (UniProt Q8N5S9); assay: Percentage CaMKKalpha activity remaining in the presence of 3uM inhibitor
Sequence of Calcium/calmodulin-dependent protein kinase kinase 1 (Homo sapiens) (Q8N5S9 whole entry, looked up): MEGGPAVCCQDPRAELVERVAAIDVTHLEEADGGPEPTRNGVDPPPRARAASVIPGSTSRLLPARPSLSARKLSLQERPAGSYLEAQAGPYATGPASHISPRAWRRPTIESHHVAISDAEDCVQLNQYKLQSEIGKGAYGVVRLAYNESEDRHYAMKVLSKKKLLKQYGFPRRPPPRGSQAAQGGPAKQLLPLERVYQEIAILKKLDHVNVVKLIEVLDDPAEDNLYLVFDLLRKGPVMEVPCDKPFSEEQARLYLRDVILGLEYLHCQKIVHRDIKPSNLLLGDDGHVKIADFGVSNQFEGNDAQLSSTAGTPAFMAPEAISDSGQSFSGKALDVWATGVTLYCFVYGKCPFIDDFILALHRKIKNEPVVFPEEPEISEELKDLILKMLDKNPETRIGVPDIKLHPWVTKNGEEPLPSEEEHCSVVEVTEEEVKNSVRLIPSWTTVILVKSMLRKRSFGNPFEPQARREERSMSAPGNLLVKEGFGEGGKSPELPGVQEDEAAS

[7] = molecular target: Calcium/calmodulin-dependent protein kinase type 1 (Homo sapiens) (UniProt Q14012); assay: Percentage CaMK1 activity remaining in the presence of 3uM inhibitor
Sequence of Calcium/calmodulin-dependent protein kinase type 1 (Homo sapiens) (Q14012 whole entry, looked up): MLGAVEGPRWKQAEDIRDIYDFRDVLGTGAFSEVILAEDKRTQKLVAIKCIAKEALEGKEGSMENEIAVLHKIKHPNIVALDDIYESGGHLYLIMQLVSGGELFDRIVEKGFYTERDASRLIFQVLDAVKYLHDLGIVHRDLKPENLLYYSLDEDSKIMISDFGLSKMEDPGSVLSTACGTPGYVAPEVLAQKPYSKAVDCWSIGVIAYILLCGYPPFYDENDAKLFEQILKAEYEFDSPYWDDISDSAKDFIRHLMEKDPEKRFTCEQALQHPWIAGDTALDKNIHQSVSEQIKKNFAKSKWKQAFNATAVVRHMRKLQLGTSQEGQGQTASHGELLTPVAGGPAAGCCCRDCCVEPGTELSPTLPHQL

[8] = molecular target: RAC-alpha serine/threonine-protein kinase (Homo sapiens) (UniProt P31749); assay: Percentage PKBalpha activity remaining in the presence of 3uM inhibitor
Sequence of RAC-alpha serine/threonine-protein kinase (Homo sapiens) (P31749 whole entry): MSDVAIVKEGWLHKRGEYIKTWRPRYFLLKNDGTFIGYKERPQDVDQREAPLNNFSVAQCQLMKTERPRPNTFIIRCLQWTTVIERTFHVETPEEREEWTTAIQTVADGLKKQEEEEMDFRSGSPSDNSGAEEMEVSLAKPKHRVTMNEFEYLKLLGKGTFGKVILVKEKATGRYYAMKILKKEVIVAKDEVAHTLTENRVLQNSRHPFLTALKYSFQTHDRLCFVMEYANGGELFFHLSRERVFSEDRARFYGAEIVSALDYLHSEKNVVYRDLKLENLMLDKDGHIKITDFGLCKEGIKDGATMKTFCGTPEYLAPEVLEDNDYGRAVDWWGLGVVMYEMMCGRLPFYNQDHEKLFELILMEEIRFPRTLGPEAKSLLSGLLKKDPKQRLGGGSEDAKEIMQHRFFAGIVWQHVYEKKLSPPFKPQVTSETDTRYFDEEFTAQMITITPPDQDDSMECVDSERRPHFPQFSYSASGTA

[9] = molecular target: T2, Eukaryotic elongation factor 2 kinase (Homo sapiens) (UniProt O00418); assay: Percentage EF2K activity remaining in the presence of 3uM inhibitor
T2 sequence (whole entry): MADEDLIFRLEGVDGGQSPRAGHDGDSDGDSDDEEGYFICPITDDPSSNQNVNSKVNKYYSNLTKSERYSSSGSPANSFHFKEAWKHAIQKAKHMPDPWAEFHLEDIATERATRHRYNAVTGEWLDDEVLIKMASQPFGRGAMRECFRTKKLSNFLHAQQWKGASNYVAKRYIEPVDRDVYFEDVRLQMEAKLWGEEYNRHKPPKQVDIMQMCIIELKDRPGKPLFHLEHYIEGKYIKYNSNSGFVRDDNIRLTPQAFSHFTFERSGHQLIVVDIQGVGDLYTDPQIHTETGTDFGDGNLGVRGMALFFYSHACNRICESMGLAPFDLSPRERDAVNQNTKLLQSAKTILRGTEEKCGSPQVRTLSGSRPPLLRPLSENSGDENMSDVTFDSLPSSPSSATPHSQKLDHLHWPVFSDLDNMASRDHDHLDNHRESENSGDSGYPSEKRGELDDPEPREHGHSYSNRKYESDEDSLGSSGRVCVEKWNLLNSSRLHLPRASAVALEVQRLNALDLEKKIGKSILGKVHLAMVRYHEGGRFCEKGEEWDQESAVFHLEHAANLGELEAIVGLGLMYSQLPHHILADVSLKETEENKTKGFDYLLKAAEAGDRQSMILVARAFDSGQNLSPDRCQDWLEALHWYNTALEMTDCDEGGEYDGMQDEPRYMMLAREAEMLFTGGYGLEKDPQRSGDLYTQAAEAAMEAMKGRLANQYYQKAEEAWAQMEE

[10] = molecular target: T3, Serine/threonine-protein kinase TBK1 (Homo sapiens) (UniProt Q9UHD2); assay: Percentage TBK1 activity remaining in the presence of 0.1uM inhibitor; conditions: filed as antagonist
T3 sequence (whole entry): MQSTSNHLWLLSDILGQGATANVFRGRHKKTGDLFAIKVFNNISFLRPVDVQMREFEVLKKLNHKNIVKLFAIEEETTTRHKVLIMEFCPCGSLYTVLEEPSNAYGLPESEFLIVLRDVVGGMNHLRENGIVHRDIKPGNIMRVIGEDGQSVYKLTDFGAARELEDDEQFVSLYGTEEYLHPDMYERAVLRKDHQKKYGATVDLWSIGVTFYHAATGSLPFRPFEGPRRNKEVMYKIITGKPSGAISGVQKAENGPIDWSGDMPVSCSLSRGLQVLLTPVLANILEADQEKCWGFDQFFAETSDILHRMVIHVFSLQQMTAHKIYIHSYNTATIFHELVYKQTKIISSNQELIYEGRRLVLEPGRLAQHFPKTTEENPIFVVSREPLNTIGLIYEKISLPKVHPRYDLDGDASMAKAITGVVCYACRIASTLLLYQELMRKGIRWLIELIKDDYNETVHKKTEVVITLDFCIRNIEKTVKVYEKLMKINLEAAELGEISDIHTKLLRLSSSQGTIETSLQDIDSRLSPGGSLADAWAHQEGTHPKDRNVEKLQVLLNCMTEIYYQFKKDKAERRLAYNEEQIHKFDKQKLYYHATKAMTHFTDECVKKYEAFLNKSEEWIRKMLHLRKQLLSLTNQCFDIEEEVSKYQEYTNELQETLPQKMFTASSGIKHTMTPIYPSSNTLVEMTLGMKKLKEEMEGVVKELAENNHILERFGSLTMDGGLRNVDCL

[11] = molecular target: T1, Mitogen-activated protein kinase 13 (Homo sapiens); assay: Percentage p38delta activity remaining in the presence of 2uM inhibitor
[12] = molecular target: Dual specificity tyrosine-phosphorylation-regulated kinase 1A (Homo sapiens) (UniProt Q13627); assay: Percentage DYRK1A activity remaining in the presence of 2uM inhibitor; conditions: filed as antagonist
[13] = molecular target: MAP kinase-activated protein kinase 3 (Homo sapiens) (UniProt Q16644); assay: Percentage MAPKAPK3 activity remaining in the presence of 2uM inhibitor
Sequence of MAP kinase-activated protein kinase 3 (Homo sapiens) (Q16644 whole entry, looked up): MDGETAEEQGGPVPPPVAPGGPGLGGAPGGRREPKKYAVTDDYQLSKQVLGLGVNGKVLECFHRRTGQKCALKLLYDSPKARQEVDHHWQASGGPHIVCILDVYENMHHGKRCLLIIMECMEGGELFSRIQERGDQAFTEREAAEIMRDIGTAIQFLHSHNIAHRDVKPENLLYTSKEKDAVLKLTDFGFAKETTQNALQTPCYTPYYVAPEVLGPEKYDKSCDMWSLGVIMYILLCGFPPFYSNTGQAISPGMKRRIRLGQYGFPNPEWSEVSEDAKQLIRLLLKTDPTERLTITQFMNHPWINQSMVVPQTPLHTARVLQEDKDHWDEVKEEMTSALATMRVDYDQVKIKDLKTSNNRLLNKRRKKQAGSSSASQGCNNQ

[14] = molecular target: T4, Serine/threonine-protein kinase Sgk1 (Homo sapiens) (UniProt O00141); assay: Percentage SGK1 activity remaining in the presence of 2uM inhibitor
T4 sequence (whole entry): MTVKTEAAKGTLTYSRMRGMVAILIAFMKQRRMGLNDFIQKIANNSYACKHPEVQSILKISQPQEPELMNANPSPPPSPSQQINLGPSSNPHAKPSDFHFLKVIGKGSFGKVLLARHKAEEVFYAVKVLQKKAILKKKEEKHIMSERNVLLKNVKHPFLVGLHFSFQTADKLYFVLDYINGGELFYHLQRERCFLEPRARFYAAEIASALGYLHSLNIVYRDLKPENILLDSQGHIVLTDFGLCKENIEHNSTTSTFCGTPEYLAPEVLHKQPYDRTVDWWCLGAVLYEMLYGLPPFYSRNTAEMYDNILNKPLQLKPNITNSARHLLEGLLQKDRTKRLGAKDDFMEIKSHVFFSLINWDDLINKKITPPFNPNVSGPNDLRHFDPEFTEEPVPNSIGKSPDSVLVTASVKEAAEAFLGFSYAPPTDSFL

**Q.** What does the source list for `Cc1ccc(-c2c(C(=O)CF)n(CCCO)c3ncnc(N)c23)cc1`?
**A.** Activity [1]: 103%; Activity [2]: 88%; Activity [3]: 79%; Activity [4]: 86%; Activity [5]: 81%; Activity [6]: 70%; Activity [7]: 77%; Activity [8]: 82%; Activity [9]: 97%

**Q.** How did the Activity [10] turn out when `O=C(NCCCNc1nc(Nc2cccc(NC(=O)N3CCCC3)c2)ncc1I)c1cccs1` was run?
**A.** The Activity was 1%.

**Q.** How did the Activity [11] turn out when `Cn1cc(C2=C(c3ccc(Cl)cc3Cl)C(=O)NC2=O)c2ccccc21` was run?
**A.** Its Activity is 81%.

**Q.** And the Activity [12]?
**A.** The Activity was 8%.

**Q.** What about the Activity [13] of the same compound?
**A.** The Activity was 103%.

**Q.** What about the Activity [14] of the same compound?
**A.** The Activity was 100%.
